In PMC4697807, “Novel Zn^2+ Modulated GPR39 Receptor Agonists Do Not Drive Acute Insulin Secretion in Rodents” (PLoS ONE, 2015):
Like-named read-outs stand apart in the source and are kept apart here.

Tests used:
mGPR39 = target: T1, mGPR39 (Mus musculus, UniProt Q5U431); experiment: DMR label-free assay, HEK293s cells transfected with mouse GPR39; assay type: cell-based; details: for Efficacy at 33 μM: AZ1395 100% reference
T1 construct: Full length human (AF034633), rat (DM091294) and mouse (BC085285) GPR39; expressed in transfected cells; host or cells: HEK293s (ATCC CRL-1573), pIRESneo3 vector, selected clones
T1 sequence (Q5U431 1-456): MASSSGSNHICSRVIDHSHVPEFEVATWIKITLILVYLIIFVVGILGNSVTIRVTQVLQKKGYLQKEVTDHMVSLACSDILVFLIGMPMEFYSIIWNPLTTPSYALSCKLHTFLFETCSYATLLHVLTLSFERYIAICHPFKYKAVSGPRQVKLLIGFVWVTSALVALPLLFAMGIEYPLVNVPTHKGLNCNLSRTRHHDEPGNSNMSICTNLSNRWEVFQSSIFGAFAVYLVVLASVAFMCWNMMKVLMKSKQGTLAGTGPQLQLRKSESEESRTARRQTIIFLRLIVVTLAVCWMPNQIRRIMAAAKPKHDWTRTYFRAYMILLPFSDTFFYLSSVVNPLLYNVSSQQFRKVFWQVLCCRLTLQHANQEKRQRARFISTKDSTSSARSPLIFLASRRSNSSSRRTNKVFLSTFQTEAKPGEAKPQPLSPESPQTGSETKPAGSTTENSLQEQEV
Excerpt: (§1) Full length human (AF034633), rat (DM091294) and mouse (BC085285) GPR39 (GeneArt–Life Technologies, Carlsbad, CA) were subcloned into the pIRESneo3 vector (Clontech, Mountain View, CA). The resulting expression vectors hGPR39-, rGPR39- and mGPR39-pIRESneo3 were transfected into HEK293s cells (ATCC CRL-1573) using Lipofectamine 2000 (Life Technologies). Individual clones were isolated using flow cytometry with a FACSVantage SE DIVA (Becton Dickinson, Franklin Lakes, NJ) and clones were chosen based on responses to Zn^2+ measured in a cAMP assay (see below). […] HEK293s-derived cell lines were cultured at 37°C, 10% CO2 and 95% humidity in DMEM supplemented with 10% FBS and 600 μg/ml Geneticin (Life Technologies). The mouse pancreas epithelial cell line NIT-1 (ATCC CRL-2055) with endogenous expression of GPR39 was cultured at 37°C, 5% CO2, and 95% humidity in Ham´s F12 (Life Technologies) supplemented with 10% FBS.
(§2) DMR assays were performed using an Epic instrument (Corning Inc., Corning, NY). 12,000 cells per well were cultured for 24 h in 384-well fibronectin-coated Epic biosensor plates (Corning). On the day of experiment, culture medium was removed and replaced with 30 μl buffer A (HBSS, HEPES 20 mM pH7.4, 1% DMSO, 0.01% BSA) using an EL406 (Bio-Tek). Plates were incubated at 26 °C for 1 h inside the Epic to allow for temperature equilibration. A baseline was read for 2 min, and then 15 μl compounds in buffer A were added using a CyBi-Well vario (CyBio) and DMR was detected during 45 min.
(§3) Concentration response data were fitted with a four parameter logistic fit using Eq 1, y=A+((B−A)/1+((C/x)^D))) (1) where A is no activation, B is full activation, C is the EC50 and D is the Hill slope.

GPR39 [1] = target: T2, GPR39 (Homo sapiens, UniProt O43194); experiment: Dynamic mass redistribution (DMR) label-free assay, HEK293s-hGPR39 cells; assay type: cell-based; set-up: Full length human (AF034633), rat (DM091294) and mouse (BC085285) GPR39; expressed in transfected cells; host or cells: HEK293s (ATCC CRL-1573), pIRESneo3 vector, selected clones; details: for Efficacy at 33 μM: AZ1395 100% reference
T2 sequence (O43194 1-453): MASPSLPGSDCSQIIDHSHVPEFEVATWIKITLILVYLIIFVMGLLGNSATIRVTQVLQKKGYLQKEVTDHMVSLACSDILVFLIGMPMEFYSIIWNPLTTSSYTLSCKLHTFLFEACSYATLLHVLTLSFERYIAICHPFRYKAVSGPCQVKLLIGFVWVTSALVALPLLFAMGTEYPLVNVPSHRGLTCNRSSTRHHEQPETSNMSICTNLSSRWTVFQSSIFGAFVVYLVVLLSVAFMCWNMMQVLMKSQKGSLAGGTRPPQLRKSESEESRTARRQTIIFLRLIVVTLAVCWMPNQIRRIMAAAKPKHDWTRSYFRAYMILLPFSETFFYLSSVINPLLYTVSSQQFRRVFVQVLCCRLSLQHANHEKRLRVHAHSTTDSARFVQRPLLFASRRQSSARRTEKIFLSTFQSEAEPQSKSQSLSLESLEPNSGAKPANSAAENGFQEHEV
Excerpt: as §1, §2, §3

GPR39 [2] = target: T2, GPR39; experiment: Back-scattering interferometry (BSI) binding assay, HEK293s-hGPR39 membranes; set-up: Full length human (AF034633), rat (DM091294) and mouse (BC085285) GPR39; expressed in transfected cells; host or cells: HEK293s (ATCC CRL-1573), pIRESneo3 vector, selected clones
Method: Membranes (1.3 mg protein/ml) from HEK293s-hGPR39 and untransfected HEK293s cells were diluted 11-fold in 50 mM Tris, pH 7.5, 5 μM ZnCl2, 0.3% DMSO. The compounds were diluted from 10 mM in DMSO to the final maximum stock concentration of 30 μM with 50 mM Tris, pH 7.5, 5 μM ZnCl2, 24.6 mM sucrose. A 3-fold serial dilution was performed with the compounds and refractive index-matched assay buffer, 50 mM Tris, pH 7.5, 5 μM ZnCl2, 24.6 mM sucrose, 0.3% DMSO. The compound serial dilutions were mixed 1:1 with either the GPR39 or wild type membrane fractions in a 96-well polypropylene microplate (Eppendorf, Hauppauge, NY). After a 2 hour incubation at room temperature, the plate was analyzed on a pre-commercial prototype BSI instrument (Molecular Sensing, Inc., Nashville, TN). Binding signal was expressed as the phase shift in the interference fringe patterns on a CMOS camera as measured in milliradians. The data from the wild type membrane fractions was subtracted from the GPR39-expressing fractions point by point to obtain the specific binding interaction of the compounds with GPR39 and fit to one-site binding or two-site binding models using built-in models in Graphpad Prism to determine K D values for each compound.

[3] = absence (w/o) of Zn^2+, read-out: EC50
[4] = absence (w/o) of Zn^2+, read-out: pEC50 ± SD (converted)
[5] = presence of 5 μM Zn^2+, read-out: pEC50 ± SD (converted)
[6] = presence of 5 μM Zn^2+, read-out: EC50
[7] = presence of 5 μM Zn^2+, one site binding model, read-out: K D ± SE
[8] = Zn^2+ binding, two site binding model

Row | Structure (SMILES) | EC50 (mGPR39; [3]) [µM] | EC50 (mGPR39; [4]) [µM] | EC50 (mGPR39; [5]) [µM] | EC50 (GPR39 [1]; [4]) [µM] | EC50 (GPR39 [1]; [6]) [µM] | EC50 (GPR39 [1]; [5]) [µM] | Kd (GPR39 [2]; [7]) [µM] | Efficacy at 33 μM (mGPR39; absence (w/o) of Zn^2+) [%] | EC50 (mGPR39; [6]) [µM] | Efficacy at 33 μM (GPR39 [1]; absence (w/o) of Zn^2+) [%] | EC50 (GPR39 [1]; [3]) [µM] | Emax relative to the 100% efficacy reference AZ1395 (GPR39 [1]; Zn^2+ by itself) [%] | pEC50 ± SD (GPR39 [1]; Zn^2+ by itself) | EC50 (GPR39 [1]; Zn^2+ by itself, read-out: EC50) [µM] | pK D1 (high affinity site) (GPR39 [2]; [8]) | pK D2 (low affinity site) (GPR39 [2]; [8]) | Kd (GPR39 [2]; Zn^2+ binding, two site binding model, read-out: K D1 (high affinity site) ± SE) [µM] | Kd (GPR39 [2]; Zn^2+ binding, two site binding model, read-out: K D2 (low affinity site) ± SE) [µM]
1 | N#Cc1ccc(OCCn2ccnc2)c(OCCn2ccnc2)c1 [AZ1395, 3,4-bis-(2-imidazol-1-ylethoxy)-benzonitrile] | 10 | 10.5 | 0.166 | 2.29 | 0.036 | 0.0355 | 0.233 ± 0.07 | – | – | – | – | – | – | – | – | – | – | –
2 | Cc1nc2c(C(=O)O)cnn2c(O)c1Cc1ccc(Cl)cc1 [AZ4237, 6-[(4-chlorophenyl)methyl]-7-hydroxy-5-methyl-pyrazolo[1,5-a]pyrimidine-3-carboxylic acid] | > 33 | – | 0.457 | – | – | 0.191 | 0.048 ± 0.018 | 12 | 0.45 | 20 | > 33 | – | – | – | – | – | – | –
3 | Cc1nc(-c2nc3c(c(=O)[nH]2)CN(C(=O)c2cccc(Cl)c2F)CC3)cs1 [AZ7914, 6-(3-chloro-2-fluoro-benzoyl)-2-(2-methylthiazol-4-yl)-3,5,7,8-tetrahydropyrido-[4,3-d]pyrimidin-4-one] | > 33 | – | 0.316 | – | – | 0.102 | 0.192 ± 0.085 | 42 | – | 39 | > 33 | – | – | – | – | – | – | –
4 | [Zn+2] [Zn^2+] | – | – | – | – | – | – | – | – | – | – | – | ~35 | (4.87 ± 0.05) | 13 | 6.27 | 3.68 | 0.53 | 211
